Measurements taken from US20170198005A1, “2'-DICHLORO AND 2'-FLUORO-2'-CHLORO NUCLEOSIDE ANALOGUES FOR HCV INFECTION” (IDENIX PHARMACEUTICALS LLC, priority 2013, published 2017).
Like-named read-outs stand apart in the source and are kept apart here.

Legend:
[1] = target: T1, wild-type HCV genotype 1b NS5B protein (HCV polymerase) (Hepatitis C virus genotype 1b, UniProt Q9WMX2); assay: HCV polymerase enzyme assay, wild-type; assay type: biochemical
T1 construct: HCV genotype 1b NS5B protein were used to generate recombinant HCV polymerases (with a deletion of the 21 carboxy terminal amino acids); made in house
Text: (§1) Test compounds in the form of nucleoside triphosphates were examined for inhibitory activity against purified HCV polymerase in a standard assay. Bacterial expression constructs encoding the approximately 65 kDa HCV genotype 1b NS5B protein were used to generate recombinant HCV polymerases (with a deletion of the 21 carboxy terminal amino acids). Both the wild-type genotype 1b protein and protein containing the S282T mutation were expressed and purified for use in the enzymatic activity assay.
(§2) The enzymatic activity assay measured the inhibitory effect of increasing concentrations of test compound on the incorporation of α-[^33P]-labeled nucleotide into trichloroacetic acid-precipitable material. Recombinant polymerase and synthetic RNA template were combined in reaction buffer containing ribonucleoside triphosphates, α-[^33P]-labeled nucleotide and eight concentrations of test compound in three-fold dilutions. Reactions were incubated for two hours at 30° C.
(§3) Reactions were terminated by the addition of ice-cold trichloroacetic acid and sodium pyrophosphate to promote precipitation of newly-synthesized ribonucleic acid. Precipitable material from the reactions was collected by filtration onto 96-well filter plates, washed extensively with water, and quantified by liquid scintillation.
(§4) The inhibitory activity of test compounds was determined by fitting results to dose-response curves using XLfit software.

[2] = target: T2, HCV genotype 1b NS5B protein containing the S282T mutation (Hepatitis C virus genotype 1b, UniProt Q9WMX2, S2701T); assay: HCV polymerase enzyme assay, S282T mutant; assay type: biochemical
T2 construct: HCV genotype 1b NS5B protein were used to generate recombinant HCV polymerases (with a deletion of the 21 carboxy terminal amino acids); made in house
Text: as §1, §2, §3, §4

[3] = Cytotoxicity evaluation, CellTiter-Blue Cell Viability Assay; assay type: cell-based; details: human
Experimental: (§5) For cytotoxicity evaluation, Zluc cells were treated with compound as described herein, and cell viability was monitored using the CellTiter-Blue Cell Viability Assay (Promega) by adding 20 μL of the assay solution to each well. The plates were then incubated at 37° C./5% CO2 for at least 3 hours. Fluorescence was detected in plates using excitation and emission wavelengths of 531 and 595 nm, respectively, in a Victor^3 V 1420 multilabel counter (Perkin Elmer) and CC50 values were determined using Microsoft Excel and XLfit 5.2 software.

[4] = test system: HCV genotype 1b replicon; assay: HCV replicon assay (luciferase reporter); assay type: cell-based; details: Zluc cells, 72 hours of incubation
Experimental: Huh-7-derived cell line (Zluc) that harbors an HCV genotype 1b replicon and a luciferase reporter gene was grown in Dulbecco's Modified Eagle Medium (DMEM) supplemented with 10% fetal bovine serum, 2 mM GlutaMAX, 1% MEM nonessential amino acids, 100 IU/mL penicillin, 100 μg/mL streptomycin, and 0.5 mg/mL Geneticin® (G418). For dose response testing the cells were seeded in 96-well plates at 7.5×10^3 cells per well in a volume of 50 μL, and incubated at 37° C./5% CO2. Drug solutions were made up freshly in Huh-7 media as 2× stocks. Ten additional 5-fold dilutions were prepared from these stocks in DMEM without G418. At least three hours after Zluc cells were seeded, drug treatment was initiated by adding 50 μL of drug dilutions to the plates in duplicate. Final concentrations of drug ranged from 100 μM to 0.0000512 μM. Cells were then incubated at 37° C./5% CO2. […] After 72 hours of incubation, the inhibition of HCV replication was measured by quantification of photons emitted after mono-oxygenation of 5′-fluoroluciferin to oxyfluoroluciferin by firefly luciferase. For this, media was removed from the plates via gentle tapping. Fifty microliters of ONE-glo luciferase assay reagent was added to each well. The plates were shaken gently for 3 min at room temperature and luminescence was measured on a Victor^3 V 1420 multilabel counter (Perkin Elmer) with a 1 second read time using a 700 nm cut-off filter. The EC50 values were calculated from dose response curves from the resulting best-fit equations determined by Microsoft Excel and XLfit 5.2 software.
Compounds presented in Table 1 below were assayed according to the replicon assay described herein.

[5] = test system: Zluc cells (Huh-7-derived cell line); assay: Cytotoxicity evaluation, CellTiter-Blue Cell Viability Assay; assay type: cell-based; details: read-out: HCV Replicon CC50
Experimental: as §5

[6] = Pharmacokinetics of liver triphosphate following a single oral dose in CD-1 mice; assay type: in vivo; details: CD-1 male mice, single oral dose 10 mg/kg in PEG 200, liver triphosphate at 4, 12 and 24 hours, AUC given at 1 μmol/kg
Experimental: A single oral dose of test compound at 10 mg/kg in PEG 200 (dose volume 5 mL/kg) was administered to nine CD-1 male mice. Five untreated animals were used for the collection of control plasma and liver. Terminal plasma and liver samples were collected from three animals per time point at 4, 12 and 24 hours post dose. Liver specimens were collected from all animals immediately after the incision. Freezing forceps stored in liquid nitrogen were used to freeze the liver before excision.
Liver samples were analyzed for the active species nucleoside triphosphate by LC-MS/MS. The triphosphate levels were assayed by homogenizing (on ice) a known weight of mouse liver with 4× volume of 0.95 M trichloroacetic acid (TCA). Internal standard solution was added to the homogenate followed by neutralization with 20% ammonium hydroxide solution and addition of 500 μL 1% formic acid. The tissue samples were extracted by weak anion exchange solid phase extraction (SPE). Post extraction, the eluates were evaporated under nitrogen, followed by reconstitution before injection onto the LC-MS/MS system. […] The analyte was detected and quantified by tandem mass spectrometry in positive ion mode on an API4000 equipped with a Turbo Ionspray® interface.

[7] = Zluc cells, read-out: HCV Replicon CC50
[8] = Zluc cells (Huh-7-derived HCV replicon cell line)

Row | SMILES | EC50 ([4]; Hepatitis C virus, 72 h) [µM] | CC50 [3, 8] [µM] | other results
1 | O=c1ccn([C@@H]2O[C@H](COP(=O)(O)OP(=O)(O)OP(=O)(O)O)[C@@H](O)[C@@]2(F)Cl)c(=O)[nH]1 [Compound 2005] | – | – | IC50 [1]: < 0.25 µM; IC50 [2]: 1 to 10 µM
2 | CC(C)OC(=O)[C@@H](C)NP(=O)(OC[C@H]1O[C@@H](n2cnc3c(=O)[nH]c(N)nc32)[C@@](F)(Cl)[C@@H]1O)Oc1ccccc1 (mixture of isomers) [147a (Diast. Mix)] | > 10 | – | CC50 [3, 7]: > 50 µM
3 | CC(C)OC(=O)[C@H](C)N[P@](=O)(OCCSC(=O)C(C)(C)C)OC[C@H]1O[C@@H](n2ccc(N)nc2=O)[C@@](F)(Cl)[C@@H]1O (single isomer, unassigned) [102b (Diast. 1)] | > 10 | > 50 | –
4 | Nc1nc2c(ncn2[C@@H]2O[C@H](COP(=O)(O)OP(=O)(O)OP(=O)(O)O)[C@@H](O)[C@]2(F)Cl)c(=O)[nH]1 [Compound 2003] | – | – | IC50 [1]: < 0.25 µM; IC50 [2]: < 0.25 µM
5 | CC(C)OC(=O)[C@H](C)N[P@](=O)(OCCSC(=O)C(C)(C)C)OC[C@H]1O[C@@H](n2ccc(N)nc2=O)C(Cl)(Cl)[C@@H]1O (single isomer, unassigned) [101b (Diast. 2)] | – | – | CC50 [5]: > 50 µM; EC50 [4]: 1 to 10 µM
6 | Nc1ncnc2c1ncn2[C@@H]1O[C@H](CO)[C@@H](O)C1(Cl)Cl [Compound 1011] | > 10 | > 50 | –
7 | O=c1ccn([C@@H]2O[C@H](CO)[C@@H](O)[C@@]2(F)Cl)c(=O)[nH]1 [Compound 1007] | > 10 | > 50 | –
8 | CC(C)OC(=O)[C@H](C)NP(=O)(OCCSC(=O)C(C)(C)C)OC[C@H]1O[C@@H](n2cnc3c(N)ncnc32)C(Cl)(Cl)[C@@H]1O (single isomer, unassigned) [117b (Diast. 1)] | 0.25 to 1 | ≤ 50 | –
9 | CC(C)OC(=O)[C@@H](C)NP(=O)(OC[C@H]1C[C@@H](n2ccc(N)nc2=O)C(Cl)(Cl)[C@@H]1O)Oc1ccccc1 (single isomer, unassigned) [103a (Diast. 2)] | – | – | EC50 [4]: > 10 µM
10 | Nc1ncnc2c1ncn2[C@@H]1O[C@H](COP(=O)(O)OP(=O)(O)OP(=O)(O)O)[C@@H](O)C1(Cl)Cl [Compound 2011] | – | – | IC50 [1]: 0.25 to 1 µM
11 | Nc1ccn([C@@H]2O[C@H](COP(=O)(O)OP(=O)(O)OP(=O)(O)O)[C@@H](O)C2(Cl)Cl)c(=O)n1 [Compound 2001] | – | – | IC50 [1]: < 0.25 µM; IC50 [2]: 0.25 to 1 µM
12 | O=c1ccn([C@@H]2O[C@H](CO)[C@@H](O)C2(Cl)Cl)c(=O)[nH]1 [Compound 1002] | > 10 | > 50 | –
13 | CC(C)OC(=O)[C@H](C)N[P@](=O)(OCCSC(=O)C(C)(C)C)OC[C@H]1O[C@@H](n2ccc(N)nc2=O)C(Cl)(Cl)[C@@H]1O (single isomer, unassigned) [101b (Diast. 1)] | 1 to 10 | > 50 | –
14 | CC(C)OC(=O)[C@@H](C)NP(=O)(OC[C@H]1C[C@@H](n2ccc(N)nc2=O)C(Cl)(Cl)[C@@H]1O)Oc1ccccc1 (mixture of isomers) [103a (Diast. Mix)] | 1 to 10 | – | CC50 [3, 7]: > 50 µM
15 | O=c1ccn([C@@H]2O[C@H](CO)[C@@H](O)[C@]2(F)Cl)c(=O)[nH]1 [Compound 1006] | > 10 | > 50 | –
16 | CC(C)OC(=O)[C@H](C)NP(=O)(OCCSC(=O)C(C)(C)C)OC[C@H]1O[C@@H](n2cnc3c(N)ncnc32)C(Cl)(Cl)[C@@H]1O (single isomer, unassigned) [117b (Diast. 2)] | – | – | CC50 [5]: ≤ 50 µM; EC50 [4]: 0.25 to 1 µM
17 | O=c1ccn([C@@H]2O[C@H](COP(=O)(O)OP(=O)(O)OP(=O)(O)O)[C@@H](O)C2(Cl)Cl)c(=O)[nH]1 [Compound 2002] | – | – | IC50 [1]: < 0.25 µM; IC50 [2]: 1 to 10 µM
18 | CC(C)OC(=O)[C@H](C)N[P@](=O)(OCCSC(=O)C(C)(C)C)OC[C@H]1O[C@@H](n2ccc(N)nc2=O)[C@@](F)(Cl)[C@@H]1O (single isomer, unassigned) [102b (Diast. 2)] | – | – | CC50 [5]: > 50 µM; EC50 [4]: > 10 µM
19 | CC(C)OP1(=O)OC[C@H]2O[C@@H](n3ccc(N)nc3=O)C(Cl)(Cl)[C@@H]2O1 (single isomer, unassigned) [104 (Diast. 2)] | – | – | Ms Liver TP AUC ([6]; listed as 104 Diast. 2, 10 mg/kg): +++ (+++ ≦ 2000); CC50 [5]: > 50 µM; EC50 [4]: > 10 µM
20 | CC(C)OP1(=O)OC[C@H]2O[C@@H](n3ccc(N)nc3=O)C(Cl)(Cl)[C@@H]2O1 (single isomer, unassigned) [104 (Diast. 1)] | – | > 50 | Ms Liver TP AUC ([6]; listed as 104 Diast. 1, 10 mg/kg): ++++ (2000 < ++++); EC50 [4]: 1 to 10 µM
21 | O=c1ccn([C@@H]2O[C@H](COP(=O)(O)OP(=O)(O)OP(=O)(O)O)[C@@H](O)[C@]2(F)Cl)c(=O)[nH]1 [Compound 2004] | – | – | IC50 [1]: < 0.25 µM; IC50 [2]: 1 to 10 µM
22 | CC(C)OC(=O)[C@H](C)N[P@](=O)(OCCSC(=O)C(C)(C)C)OC[C@H]1O[C@@H](n2ccc(N)nc2=O)[C@@](F)(Cl)[C@@H]1O (mixture of isomers) [102b (Diast. Mix)] | > 10 | > 50 | –
23 | Nc1ccn([C@@H]2O[C@H](CO)[C@@H](O)[C@]2(F)Cl)c(=O)n1 [Compound 1004] | 1 to 10 | > 50 | –
24 | Nc1nc2c(ncn2[C@@H]2O[C@H](CO)[C@@H](O)[C@]2(F)Cl)c(=O)[nH]1 [Compound 1005] | > 10 | > 50 | –
25 | Nc1ccn([C@@H]2O[C@H](CO)[C@@H](O)C2(Cl)Cl)c(=O)n1 [Compound 1001] | > 10 | > 50 | –
26 | CC(C)OC(=O)[C@@H](C)NP(=O)(OC[C@H]1C[C@@H](n2ccc(N)nc2=O)C(Cl)(Cl)[C@@H]1O)Oc1ccccc1 (single isomer, unassigned) [103a (Diast. 1)] | > 10 | – | CC50 [3, 7]: > 50 µM
